Experimental data as given in patent US12195427B2, “MASP-2 inhibitors and methods of use” (priority 2018, dated 2025).
Counter-ions that a name gives are not always drawn.

Target: MASP-2 CCP2-SP (Homo sapiens (Human), UniProt O00187)
Experiment: MASP-2 co-crystallization, X-ray crystallography and structure analysis (H-bonds, van der Waals contacts);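 on Ligand-pharmacophore element distance, pharmacophore element C2: distance from averaged pharmacophore element to bound ligand; missing value means element absent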;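 on Ligand-pharmacophore element distance, pharmacophore element C3: distance from averaged pharmacophore element to bound ligand; missing value means element absent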;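 on Ligand-pharmacophore element distance, pharmacophore element C4: distance from averaged pharmacophore element to bound ligand; missing value means element absent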;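 on Ligand-pharmacophore element distance, pharmacophore element C5: distance from averaged pharmacophore element to bound ligand; missing value means element absent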
Parameters: van der Waals contact distance, MASP-2 HIS 483 atom CD2 / van der Waals contact distance, MASP-2 HIS 483 atom NE2 / van der Waals contact distance, SER 654 C to compound atom / van der Waals contact distance, SER 654 O to compound atom / van der Waals contact distance, TRP 655 C to compound atom / van der Waals contact distance, MASP-2 GLY 528 atom CA / van der Waals contact distance TRP 655 atom CZ3 / van der Waals contact distance TRP 655 atom N / van der Waals contact distance TRP 655 atom CE3 / van der Waals contact distance GLY 656 atom C / van der Waals contact distance GLY 656 atom CA / van der Waals contact distance GLY 656 atom O / van der Waals contact distance, MASP-2 TYR 607 atom CD1 / van der Waals contact distance, MASP-2 PRO 606 atom O / d(C3,CA1) / d(CA1,N1)2 / d(H4,O1) / d(H4,O2) / d(O1,O2) / d(CA1,O2) / d(CA6,O1) / d(CA6,O2) / d(CA1,C5) / d(O2,H3) / d(N2,C2) / d(CA5,N2) / d(N2,C4) / d(N2,C6) / d(N2,CA3) / d(N2,O3) / d(O4,H2): unit not given beside the values
Conditions: for H-bond distance to MASP-2 GLY 656 atom N: GLY 656 N; for H-bond distance to MASP-2 SER 654 atom O: SER 654 O; for H-bond distance to MASP-2 SER 657 atom O: SER 657 O; for van der Waals contact distance, MASP-2 HIS 483 atom CD2 / van der Waals contact distance, MASP-2 HIS 483 atom NE2: Table A2-1; for van der Waals contact distance, VAL 653 CG1 to compound atom: Table A2-11; for van der Waals contact distance TRP 655 atom CE3: MASP-2 TRP 655 CE3, compound atom in line below; for van der Waals contact distance TRP 655 atom CZ3: MASP-2 TRP 655 CZ3; for Ligand-pharmacophore element distance, pharmacophore element C2 / Ligand-pharmacophore element distance, pharmacophore element C3 / Ligand-pharmacophore element distance, pharmacophore element C4 / Ligand-pharmacophore element distance, pharmacophore element C5 / Ligand-pharmacophore element distance, pharmacophore element C6 / Ligand-pharmacophore element distance, pharmacophore element C7 / Ligand-pharmacophore element distance, pharmacophore element CA1 / Ligand-pharmacophore element distance, pharmacophore element CA2 / Ligand-pharmacophore element distance, pharmacophore element CA3 / Ligand-pharmacophore element distance, pharmacophore element CA4 / Ligand-pharmacophore element distance, pharmacophore element CA5 / Ligand-pharmacophore element distance, pharmacophore element CA6: Table A4-1; for van der Waals contact distance SER 657 atom C: Table A2-14, MASP-2 SER 657 C, columns c12-c13 (inferred)
In short: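 Inhibitor complexes were obtained by soaking crystals of E. coli-derived human MASP-2 CCP2-SP. Synchrotron diffraction at 1.0 wavelength, molecular replacement and partial refinement gave the models; one pose per ligand was chosen for contact analysis.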

[1] = Table A5-1 pharmacophore: distance between elements, S2/S1 region
[2] = Table A5-2 pharmacophore distance, S3/S4 region
[3] = Table A7-1, between pharmacophore elements of the bound compound
[4] = Table A7-2, between pharmacophore elements of the bound compound
[5] = Table A2-5: TYR 607 (CE1, CE2, OH), PRO 608 (CD, CG), SER 611 (CA)

Chain of MASP-2 CCP2-SP (O00187 445-686): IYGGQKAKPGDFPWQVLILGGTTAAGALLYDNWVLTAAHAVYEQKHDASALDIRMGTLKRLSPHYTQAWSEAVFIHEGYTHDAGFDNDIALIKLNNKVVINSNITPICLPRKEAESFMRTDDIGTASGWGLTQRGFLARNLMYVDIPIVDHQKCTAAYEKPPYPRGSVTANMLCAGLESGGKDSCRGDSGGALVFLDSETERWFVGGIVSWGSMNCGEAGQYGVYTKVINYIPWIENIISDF
Chain of MASP-2 CCP2-SP (O00187 364-432 partner): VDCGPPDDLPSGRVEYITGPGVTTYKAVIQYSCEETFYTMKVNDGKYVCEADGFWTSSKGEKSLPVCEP

Structure (SMILES): CC(=O)Nc1ccc(CCN[C@H](CCc2ccccc2)C(=O)N[C@@H](C)C(=O)NCc2ccc(N)nc2C)cc1 [compound 1368, (R)-2-((4-Acetamidophenethyl)amino)-N—((S)-1-(((6-amino-2-methylpyridin-3-yl)methyl)amino)-1-oxopropan-2-yl)-4-phenylbutanamide Dihydrochloride]
- H-bond distance to MASP-2 ASP 627 atom OD2 (Table A1 (H-Bonds), ASP 627 OD2): 3.24
- H-bond distance to MASP-2 GLY 656 atom N (Table A1 (H-Bonds)): 3.07
- H-bond distance to MASP-2 PRO 606 atom O (Table A1 (H-Bonds), PRO 606 O): 3.21
- H-bond distance to MASP-2 SER 628 atom O (Table A1 (H-Bonds), SER 628 O): 3.16
- H-bond distance to MASP-2 SER 654 atom O (Table A1 (H-Bonds)): 3.04
- H-bond distance to MASP-2 SER 657 atom O (Table A1 (H-Bonds)): 2.94
- van der Waals contact distance, MASP-2 HIS 483 atom CD2: 3.86
- van der Waals contact distance, MASP-2 HIS 483 atom NE2: 3.67
- van der Waals contact distance, MASP-2 PHE 529 atom CE2 (Table A2-3): 3.79
- van der Waals contact distance, MASP-2 PHE 529 atom CZ (Table A2-3): 3.71
- van der Waals contact distance, MASP-2 PRO 606 atom CB (Table A2-4): 3.6
- van der Waals contact distance, MASP-2 PRO 606 atom O (Table A2-4): 3.75
- van der Waals contact distance, MASP-2 amino acid atom to compound atom (Table A2-7: SER 628 (CB, O, OG)): 3.63
- van der Waals contact distance, VAL 653 CG1 to compound atom: 3.32
- van der Waals contact distance, SER 654 O to compound atom (Table A2-12): 3.85
- van der Waals contact distance, TRP 655 CA to compound atom (Table A2-12): 3.29
- van der Waals contact distance TRP 655 atom CE3 (Table A2-13): 3.52
- van der Waals contact distance TRP 655 atom CZ3 (Table A2-13): 3.87
- Ligand-pharmacophore element distance, pharmacophore element C2: 0
- Ligand-pharmacophore element distance, pharmacophore element C3: 0.16
- Ligand-pharmacophore element distance, pharmacophore element C4: 0
- Ligand-pharmacophore element distance, pharmacophore element C5: 0
- Ligand-pharmacophore element distance, pharmacophore element C6: 0
- Ligand-pharmacophore element distance, pharmacophore element C7: 0
- Ligand-pharmacophore element distance, pharmacophore element CA1: 0.62
- Ligand-pharmacophore element distance, pharmacophore element CA2: 0.95
- Ligand-pharmacophore element distance, pharmacophore element CA3: 0
- Ligand-pharmacophore element distance, pharmacophore element CA4: 0
- Ligand-pharmacophore element distance, pharmacophore element CA5: 2.23
- Ligand-pharmacophore element distance, pharmacophore element CA6: 0
- d(C3,CA1) [1]: 2.86
- d(CA1,N1)2 [1]: 1.39
- d(CA1,O1) [1]: 4.30
- d(CA1,O2) [1]: 8.92
- d(H4,O1) [1]: 4.34
- d(H4,O2) [1]: 8.84
- d(O1,O2) [1]: 7.07
- d(CA5,N2) [2]: 4.47
- d(N2,CA2) [2]: 6.36
- d(O2,H3) [2]: 7.79
- d(O2,N2) [2]: 4.30
- a(C3, CA1, O1) (Table A6-1 pharmacophore angle): 149.59
- a(CA1, O1, O2) (Table A6-1 pharmacophore angle): 151.69
- a(O1, O2, H4) (Table A6-1 pharmacophore angle): 127.75
- a(N1, CA1, O1) b) (Table A6-1 pharmacophore angle, Methyl-amino-pyridine compounds): 173.57
- a(O1, O2, H3) (Table A6-2 pharmacophore angle): 119.72
- a(O1, O2, N2) (Table A6-2 pharmacophore angle): 74.03
- a(O2, N2, CA2) (Table A6-2 pharmacophore angle): 145.05
- Pharmacophore torsion angle a(C3, CA1, O1, H4) [3]: 22.95
- Pharmacophore torsion angle a(H4, O1, O2, H3) [3]: 40.86
- Pharmacophore torsion angle a(H4, O1, O2, N2) [3]: 68.19
- Pharmacophore torsion angle a(N1, CA1, O1, H4) [3]: −2.26
- Pharmacophore torsion angle a(O1, H4, O2, CA1) [3]: −74.89
- Pharmacophore torsion angle a(O1, O2, N2, CA2) [4]: −100.57
- Pharmacophore torsion angle a(O1, O2, N2, CA5) [4]: 124.36

Structure (SMILES): C[C@H](NC(=O)[C@H]1C[C@@H](c2ccccc2)CCN1)C(=O)NCc1cnc2[nH]cc(Cl)c2c1 [compound 1433, (2R,4S)—N—((S)-1-(((3-Chloro-1H-pyrrolo[2,3-b]pyridin-5-yl)methyl)amino)-1-oxopropan-2-yl)-4-phenylpiperidine-2-carboxamide]
- H-bond distance to MASP-2 GLY 656 atom N (Table A1 (H-Bonds)): 3.13
- H-bond distance to MASP-2 GLY 656 atom O (Table A1 (H-Bonds), GLY 656 O): 2.75
- H-bond distance to MASP-2 SER 654 atom O (Table A1 (H-Bonds)): 2.89
- van der Waals contact distance, MASP-2 HIS 483 atom CD2: 3.73
- van der Waals contact distance, MASP-2 HIS 483 atom NE2: 3.76
- van der Waals contact distance, MASP-2 PHE 529 atom CE1 (Table A2-3): 3.77
- van der Waals contact distance, MASP-2 PHE 529 atom CE2 (Table A2-3): 3.82
- van der Waals contact distance, MASP-2 amino acid atom to compound atom [5]: 3.73
- van der Waals contact distance, MASP-2 amino acid atom to compound atom (Table A2-9 second part, ARG 630, AA atoms N, NE, NH1): 3.49
- van der Waals contact distance, VAL 653 CG1 to compound atom: 3.71
- van der Waals contact distance TRP 655 atom CE3 (Table A2-13): 3.59
- van der Waals contact distance TRP 655 atom CZ3 (Table A2-13): 3.73
- van der Waals contact distance TRP 655 atom N (Table A2-13, MASP-2 TRP 655 N): 3.68
- Ligand-pharmacophore element distance, pharmacophore element C2: 0.26
- Ligand-pharmacophore element distance, pharmacophore element C3: 0
- Ligand-pharmacophore element distance, pharmacophore element C4: 0
- Ligand-pharmacophore element distance, pharmacophore element C5: 0.2
- Ligand-pharmacophore element distance, pharmacophore element C6: 0
- Ligand-pharmacophore element distance, pharmacophore element C7: 0
- Ligand-pharmacophore element distance, pharmacophore element CA1: 0.98
- Ligand-pharmacophore element distance, pharmacophore element CA2: 0.18
- Ligand-pharmacophore element distance, pharmacophore element CA3: 0
- Ligand-pharmacophore element distance, pharmacophore element CA4: 0
- Ligand-pharmacophore element distance, pharmacophore element CA5: 0
- Ligand-pharmacophore element distance, pharmacophore element CA6: 0
- d(CA1,C5) [1]: 3.47
- d(CA1,O1) [1]: 5.49
- d(CA1,O2) [1]: 4.76
- d(CA1,O4) [1]: 1.77
- d(H4,O1) [1]: 3.16
- d(H4,O2) [1]: 3.59
- d(O1,O2) [1]: 3.46
- d(N2,C2) [2]: 1.51
- d(N2,CA2) [2]: 5.79
- d(O2,H3) [2]: 2.89
- d(O2,N2) [2]: 2.65
- a(C5, CA1, O1) (Table A6-1 pharmacophore angle): 151.25
- a(CA1, O1, O2) (Table A6-1 pharmacophore angle): 97.80
- a(O1, CA1, O4) (Table A6-1 pharmacophore angle): 65.77
- a(O1, O2, H4) (Table A6-1 pharmacophore angle): 118.66
- a(O1, O2, H3) (Table A6-2 pharmacophore angle): 135.90
- a(O1, O2, N2) (Table A6-2 pharmacophore angle): 141.60
- a(O2, N2, C2) (Table A6-2 pharmacophore angle): 129.89
- a(O2, N2, CA2) (Table A6-2 pharmacophore angle): 155.75
- Pharmacophore torsion angle a(C5, CA1, O1, H4) [3]: 6.40
- Pharmacophore torsion angle a(H4, O1, O2, H3) [3]: 109.26
- Pharmacophore torsion angle a(H4, O1, O2, N2) [3]: −171.69
- Pharmacophore torsion angle a(O1, H4, O2, CA1) [3]: −96.26
- Pharmacophore torsion angle a(O1, O2, N2, C2) [3]: 118.46
- Pharmacophore torsion angle a(O1, O2, N2, CA2) [4]: 127.94

Structure (SMILES): N=C(N)c1ccc(CNC(=O)[C@@H]2CCN2C(=O)[C@H](NCC(=O)O)C2CCCCC2)cc1 [melagatran, reference compound]
- H-bond distance to MASP-2 SER 628 atom OG (Table A1 (H-Bonds), SER 628 OG): 2.75
- H-bond distance to MASP-2 SER 657 atom O (Table A1 (H-Bonds)): 2.84
- van der Waals contact distance, MASP-2 TYR 607 atom CD2 (Table A2-4): 3.72
- van der Waals contact distance, MASP-2 amino acid atom to compound atom [5]: 3.67
- van der Waals contact distance, MASP-2 amino acid atom to compound atom (Table A2-9, ARG 630, AA atoms CG, CZ): 3.8
- van der Waals contact distance GLY 656 atom C (Table A2-13, MASP-2 GLY 656 C): 3.42
- van der Waals contact distance TRP 655 atom CE3 (Table A2-13): 3.75
- van der Waals contact distance TRP 655 atom O (Table A2-13, MASP-2 TRP 655 O): 3.39
- van der Waals contact distance SER 657 atom C: 3.77
- van der Waals contact distance SER 657 atom C (listed as Melagatran): 3.68
